In experiment [1] the target is NS3/NS4 complexes (Hepatitis C virus genotype 1a, UniProt P27958). As to the kind of experiment: biochemical. In a few lines: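 NS3/NS4 protease complexes were formed and compound inhibitory concentrations (IC50) measured at ambient temperature (23° C.) in 50 mM Tris-HCl, pH 7.5, with 15% glycerol, 0.6 mM LDAO, 25 μM NS4A peptide and 10 mM DTT. Replicon EC50 values come from a standard HCV replicon cell assay.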

The test system of experiment [2] is hepatitis C replicon. As to the kind of experiment: hepatitis C replicon EC50 assay. The following applies: Hepatitis C virus. The class given is cell-based. The text has this:
NS3-NS4 inhibition activity can be determined using known assay methods.

Setting [3] is: NS3-NS4 activity, 23° C., pH 7.5, 25 μM NS4A peptide, read-out: IC50.
Where [4] appears, read: hepatitis C replicon, read-out: EC50.

pEC50, pIC50: −log10 of the molar value. Where two headings read alike, the source gives them in different places.

Broadly, the pIC50 is the IC50 on a negative log10 scale, so that one unit is a factor of ten. The term pEC50 denotes −log10 of the EC50, conventionally taken in molar units.

Sequence of NS3/NS4 complexes (P27958 1027-1657, one chain of several): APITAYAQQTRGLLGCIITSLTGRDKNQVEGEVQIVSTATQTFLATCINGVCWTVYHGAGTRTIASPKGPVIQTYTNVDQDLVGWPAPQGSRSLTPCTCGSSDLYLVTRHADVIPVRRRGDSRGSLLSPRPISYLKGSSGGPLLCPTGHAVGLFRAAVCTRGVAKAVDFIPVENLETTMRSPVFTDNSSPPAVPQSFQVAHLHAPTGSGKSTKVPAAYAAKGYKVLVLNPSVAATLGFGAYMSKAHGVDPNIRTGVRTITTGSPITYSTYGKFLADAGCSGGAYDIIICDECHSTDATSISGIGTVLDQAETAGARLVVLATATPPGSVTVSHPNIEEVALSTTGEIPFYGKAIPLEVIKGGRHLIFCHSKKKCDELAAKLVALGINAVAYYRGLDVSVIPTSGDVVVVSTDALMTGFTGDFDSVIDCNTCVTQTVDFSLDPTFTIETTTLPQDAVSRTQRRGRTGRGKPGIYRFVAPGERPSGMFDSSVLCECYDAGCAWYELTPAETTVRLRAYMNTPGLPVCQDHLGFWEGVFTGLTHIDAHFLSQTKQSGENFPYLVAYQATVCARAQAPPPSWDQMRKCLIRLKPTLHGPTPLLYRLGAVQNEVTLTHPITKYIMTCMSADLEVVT

With `COc1ccccc1-c1csc(-c2cccc3c2nc(O[C@@H]2C[C@H]4C(=O)N[C@]5(C(=O)NS(=O)(=O)C6(C)CC6)C[C@H]5/C=C\CCCCC[C@H](N)C(=O)N4C2)n3C(C)C)n1` [Compound 177], the pIC50 in experiment [1] (setting [3]) is > 8.00. Besides, in experiment [2] (setting [4]), the pEC50 is < 7.00.

Turning to `CC(C)n1c(O[C@@H]2C[C@H]3C(=O)N[C@]4(C(=O)NS(=O)(=O)C5(C)CC5)C[C@H]4/C=C\CCCCC[C@H](N)C(=O)N3C2)nc2c(-c3nc(C4CCCCC4)cs3)cccc21` [Compound 178], in experiment [1] (setting [3]), the pIC50 is > 8.00. In addition, in experiment [2] (setting [4]), the negative-log EC50 (pEC50) was < 7.00.

Take `CC(C)n1c(O[C@@H]2C[C@H]3C(=O)N[C@]4(C(=O)NS(=O)(=O)C5(C)CC5)C[C@H]4/C=C\CCCCC[C@H](NC(=O)OC(C)(C)C)C(=O)N3C2)nc2c(-c3nc(C4CCCCC4)cs3)cccc21` [Compound 179]: in experiment [1] (setting [3]), the pIC50 was > 8.00. The pEC50 in experiment [2] was > 8.00.

Turning to `CC(C)n1c(O[C@@H]2C[C@H]3C(=O)N[C@]4(C(=O)NS(=O)(=O)C5(C)CC5)C[C@H]4/C=C\CCCCC[C@H](NC(=O)OC(C)(C)C)C(=O)N3C2)nc2c(-c3nc(C4CCOCC4)cs3)cccc21` [Compound 181], the pIC50 in experiment [1] (setting [3]) is > 8.00. In addition, the pEC50 in experiment [2] (setting [4]) is > 8.00.

On to `CC(C)n1c(O[C@@H]2C[C@H]3C(=O)N[C@]4(C(=O)NS(=O)(=O)C5(C)CC5)C[C@H]4/C=C\CCCCC[C@H](NC(=O)OC(C)(C)C)C(=O)N3C2)nc2c(-c3nc(C4CCNCC4)cs3)cccc21` [Compound 182], for which, in experiment [1], the pIC50 was > 8.00. In addition, the pEC50 in experiment [2] was 7.00 to 8.00.

On to `CC(C)n1c(O[C@@H]2C[C@H]3C(=O)N[C@]4(C(=O)NS(=O)(=O)C5(C)CC5)C[C@H]4/C=C\CCCCC[C@H](NC(=O)OC(C)(C)C)C(=O)N3C2)nc2c(-c3nc(C4CCN(C)CC4)cs3)cccc21` [Compound 183], for which the pIC50 in experiment [1] (setting [3]) is > 8.00. Besides, the pEC50 in experiment [2] (setting [4]) is > 8.00.

Consider `CC(C)n1c(O[C@@H]2C[C@H]3C(=O)N[C@]4(C(=O)NS(=O)(=O)C5CC5)C[C@H]4/C=C\CCCCC[C@H](NC(=O)OC(C)(C)C)C(=O)N3C2)nc2c(-c3nc(C4CCN(C)CC4)cs3)cccc21` [Compound 184], for which, in experiment [1] (setting [3]), the pIC50 is > 8.00. In addition, the pEC50 in experiment [2] (setting [4]) was > 8.00.

On to `C#CC1(S(=O)(=O)NC(=O)[C@@]23C[C@H]2/C=C\CCCCC[C@H](NC(=O)OC(C)(C)C)C(=O)N2C[C@H](Oc4nc5c(-c6nc(C7CCCCC7)cs6)cccc5n4C(C)C)C[C@H]2C(=O)N3)CC1` [Compound 188], for which the pIC50 in experiment [1] is > 8.00. Besides, the pEC50 in experiment [2] was > 8.00.

For `CC#CC1(S(=O)(=O)NC(=O)[C@@]23C[C@H]2/C=C\CCCCC[C@H](NC(=O)OC(C)(C)C)C(=O)N2C[C@H](Oc4nc5c(-c6nc(C7CCCCC7)cs6)cccc5n4C(C)C)C[C@H]2C(=O)N3)CC1` [Compound 189], in experiment [1] (setting [3]), the negative logarithm of the IC50 (pIC50) is > 8.00. Besides, the pEC50 in experiment [2] (setting [4]) is > 8.00.

As to `CC(C)n1c(O[C@@H]2C[C@H]3C(=O)N[C@]4(C(=O)NS(=O)(=O)C5CC5)C[C@H]4/C=C\CCCCC[C@H](NC(=O)OC(C)(C)C)C(=O)N3C2)nc2c(-c3nc(C4CCNCC4)cs3)cccc21` [Compound 190], the pIC50 in experiment [1] (setting [3]) is > 8.00. Further, the negative-log EC50 (pEC50) in experiment [2] (setting [4]) is > 8.00.

`CC(C)(C)OC(=O)N[C@H]1CCCCC/C=C\[C@@H]2C[C@@]2(C(=O)NS(=O)(=O)C2(C)CC2)NC(=O)[C@@H]2C[C@@H](Oc3nc4cccc(-c5nc(-c6ccccc6)cs5)c4s3)CN2C1=O` [Compound 201]: the pIC50 in experiment [1] (setting [3]) is > 8.00. Besides, the pEC50 in experiment [2] (setting [4]) was > 8.00.

As for `CC(C)(C)OC(=O)N[C@H]1CCCCC/C=C\[C@@H]2C[C@@]2(C(=O)NS(=O)(=O)C2(C)CC2)NC(=O)[C@@H]2C[C@@H](Oc3ncnc4c3CCCC4)CN2C1=O` [Compound 301], the pIC50 in experiment [1] (setting [3]) was > 8.00. The pEC50 in experiment [2] (setting [4]) was 7.00 to 8.00.

Turning to `CC(C)(C)OC(=O)N[C@H]1CCCCC/C=C\[C@@H]2C[C@@]2(C(=O)NS(=O)(=O)C2(C)CC2)NC(=O)[C@@H]2C[C@@H](Oc3nc(-c4ccccc4)nc4c3CCCC4)CN2C1=O` [Compound 302], the pIC50 in experiment [1] (setting [3]) was > 8.00. Also, the pEC50 in experiment [2] (setting [4]) was > 8.00.

For `CC(C)c1csc(-c2nc3c(c(O[C@@H]4C[C@H]5C(=O)N[C@]6(C(=O)NS(=O)(=O)C7(C)CC7)C[C@H]6/C=C\CCCCC[C@H](NC(=O)OC(C)(C)C)C(=O)N5C4)n2)CCCC3)n1` [Compound 303], in experiment [1] (setting [3]), the pIC50 was 7.00 to 8.00. Besides, the negative-log EC50 (pEC50) in experiment [2] was 7.00 to 8.00.

For `CC(C)c1csc(-c2nc3c(c(O[C@@H]4C[C@H]5C(=O)N[C@]6(C(=O)NS(=O)(=O)C7(C)CC7)C[C@H]6/C=C\CCCCC[C@H](N)C(=O)N5C4)n2)CCCC3)n1` [Compound 304], the pIC50 in experiment [1] (setting [3]) is 7.00 to 8.00. Also, the pEC50 in experiment [2] is < 7.00.

As to `CC(C)(C)OC(=O)N[C@H]1CCCCC/C=C\[C@@H]2C[C@@]2(C(=O)NS(=O)(=O)C2(C)CC2)NC(=O)[C@@H]2C[C@@H](Oc3cc(-c4ccccc4)nc4c3CCCC4)CN2C1=O` [Compound 402], the pIC50 in experiment [1] (setting [3]) is > 8.00. Further, the pEC50 in experiment [2] is > 8.00.

In the case of `CC(C)(C)OC(=O)N[C@H]1CCCCC/C=C\[C@@H]2C[C@@]2(C(=O)NS(=O)(=O)C2(C)CC2)NC(=O)[C@@H]2C[C@@H](Oc3ccnc4c3CCCC4)CN2C1=O` [Compound 403], the pIC50 in experiment [1] (setting [3]) was > 8.00. This molecule had a pEC50 in experiment [2] of 7.00 to 8.00.

Take `CC(C)(C)OC(=O)N[C@H]1CCCCC/C=C\[C@@H]2C[C@@]2(C(=O)NS(=O)(=O)C2(C)CC2)NC(=O)[C@@H]2C[C@@H](Oc3nc(-c4ccccc4)cc4c3CCCC4)CN2C1=O` [Compound 404]: the pIC50 in experiment [1] (setting [3]) was > 8.00. Further, the pEC50 in experiment [2] (setting [4]) is < 7.00.

Turning to `CC(C)c1csc(-c2cc3c(c(O[C@@H]4C[C@H]5C(=O)N[C@]6(C(=O)NS(=O)(=O)C7(C)CC7)C[C@H]6/C=C\CCCCC[C@H](NC(=O)OC(C)(C)C)C(=O)N5C4)n2)CCCC3)n1` [Compound 405], the pIC50 in experiment [1] (setting [3]) is > 8.00. For the same molecule, in experiment [2] (setting [4]), the pEC50 was < 7.00.

In the case of `CC(C)c1csc(-c2cc(O[C@@H]3C[C@H]4C(=O)N[C@]5(C(=O)NS(=O)(=O)C6(C)CC6)C[C@H]5/C=C\CCCCC[C@H](NC(=O)OC(C)(C)C)C(=O)N4C3)c3c(n2)CCCC3)n1` [Compound 406], the pIC50 in experiment [1] (setting [3]) was > 8.00. Besides, in experiment [2] (setting [4]), the pEC50 was > 8.00.

Take `COc1ccc2c(O[C@@H]3C[C@H]4C(=O)N[C@]5(C(=O)NS(=O)(=O)C6(C)CC6)C[C@H]5/C=C\CCCCC[C@H](NC(=O)OC(C)(C)C)C(=O)N4C3)cc(C(C)C)nc2c1C` [Compound 501]: the pIC50 in experiment [1] (setting [3]) is > 8.00. Further, the pEC50 in experiment [2] (setting [4]) was > 8.00.

Regarding `COc1ccc2c(O[C@@H]3C[C@H]4C(=O)N[C@]5(C(=O)NS(=O)(=O)C6(C)CC6)C[C@H]5/C=C\CCCCC[C@H](N)C(=O)N4C3)cc(C(C)C)nc2c1C` [Compound 502], the pIC50 in experiment [1] (setting [3]) was > 8.00. Moreover, in experiment [2] (setting [4]), the pEC50 is < 7.00.

Take `CC(C)c1csc(-c2cc(O[C@@H]3C[C@H]4C(=O)N[C@]5(C(=O)NS(=O)(=O)C6(C)CC6)C[C@H]5/C=C\CCCCC[C@H](NC(=O)OC(C)(C)C)C(=O)N4C3)ccn2)n1` [Compound 601]: in experiment [1] (setting [3]), the pIC50 was > 8.00. In experiment [2] (setting [4]), the negative logarithm of the EC50 (pEC50) is > 8.00.

Take `CC(C)c1csc(-c2cc(O[C@@H]3C[C@H]4C(=O)N[C@]5(C(=O)NS(=O)(=O)C6(C)CC6)C[C@H]5/C=C\CCCCC[C@H](N)C(=O)N4C3)ccn2)n1` [Compound 602]: the negative-log IC50 (pIC50) in experiment [1] (setting [3]) was > 8.00. Also, the pEC50 in experiment [2] (setting [4]) was < 7.00.

With `CC(C)(C)OC(=O)N[C@H]1CCCCC/C=C\[C@@H]2C[C@@]2(C(=O)NS(=O)(=O)C2(C)CC2)NC(=O)[C@@H]2C[C@@H](Oc3nc4cccc(-c5nc(C6CCCCC6)cs5)c4nc3C(F)(F)F)CN2C1=O` [Compound 701], in experiment [1] (setting [3]), the pIC50 was > 8.00. Also, the negative-log EC50 (pEC50) in experiment [2] (setting [4]) was < 7.00.

For the molecule `CC(C)(C)OC(=O)N[C@H]1CCCCC/C=C\[C@@H]2C[C@@]2(C(=O)NS(=O)(=O)C2(C)CC2)NC(=O)[C@@H]2C[C@@H](Oc3nc4c(-c5nc(C6CCCCC6)cs5)cccc4nc3C(F)(F)F)CN2C1=O` [Compound 702], the pIC50 in experiment [1] (setting [3]) is > 8.00. Moreover, the negative logarithm of the EC50 (pEC50) in experiment [2] (setting [4]) is > 8.00.

As for `Cc1nc2cccc(-c3nc(C4CCCCC4)cs3)c2nc1O[C@@H]1C[C@H]2C(=O)N[C@]3(C(=O)NS(=O)(=O)C4(C)CC4)C[C@H]3/C=C\CCCCC[C@H](NC(=O)OC(C)(C)C)C(=O)N2C1` [Compound 703], the pIC50 in experiment [1] (setting [3]) was > 8.00. The pEC50 in experiment [2] (setting [4]) was > 8.00.
